Assay results reported in patent US20130065834A1, “MODULATORS OF PROTEASOME ACTIVITY” (SALK INSTITUTE FOR BIOLOGICAL STUDIES, priority 2011, published 2013).
Entries after “also recorded” stand apart in the source; their conditions may differ. Residues, ends and D or L forms follow the SMILES beside them. *: point of attachment. Cbz = O=C(OCc1ccccc1)*

Key:
[1] = test system: chymotrypsin-like activity of the proteasome; experiment: 26S proteasome fluorogenic peptidase assay in worm lysate, chymotrypsin-like (Z-GGL-AMC / Suc-LLVY-AMC); format: biochemical, C. elegans; settings: worms at 25° C., 100 μg ml^−1 for the first three days of adulthood; FIG. 11
Protocol: (§1) 26S proteasome activity assays. In vitro 26S proteasome activity assays were performed as previously described [Finley, D. Recognition and processing of ubiquitin-protein conjugates by the proteasome. Annual review of biochemistry 78, 477-513 (2009)]. Worms were lysed in proteasome activity assay buffer (50 mM Tris-HCl pH 7.5, 250 mM sucrose, 5 mM MgCl2, 0.5 mM EDTA, 2 mM ATP and 1 mM dithiothreitol) using a Precellys 24 homogenizer (Bertin technologies). Lysate was centrifuged at 10,000 g for 15 min at 4° C. 25 μg of total protein lysate was transferred to a 96-well microtiter plate (BD Falcon) and incubated with fluorogenic substrate. Fluorescence (380-nm excitation, 460-nm emission) was monitored on a microplate fluorometer (Infinite M1000, Tecan) every 5 min for 1 h at 25° C.
(§2) 26S proteasome fluorogenic peptidase assays. […] Methods in enzymology 398, 364-378 (2005)]. Briefly, worms were lysed in proteasome activity assay buffer (50 mM Tris-HCl pH 7.5, 250 mM sucrose, 5 mM MgCl2, 0.5 mM EDTA, 2 mM ATP and 1 mM dithiothreitol) using a Precellys 24 homogenizer (Bertin technologies). Lysate was centrifuged at 10,000 g for 15 min at 4° C. For each experiment, 25 μg of total protein lysate was transferred to a 96-well microtiter plate (BD Falcon) then fluorogenic substrate was added. For measuring the chymotrypsin-like activity of the proteasome either Z-Gly-Gly-Leu-AMC (Enzo) or Suc-Leu-Leu-Val-Tyr-AMC (Enzo) was used. Z-Leu-Leu-Glu-AMC (Enzo) was used to measure the caspase-like activity of the proteasome and Ac-Arg-Leu-Arg-AMC for the proteasome trypsin-like activity. Fluorescence (380-nm excitation, 460-nm emission) was monitored on a microplate fluorometer (Infinite M1000, Tecan) every 5 min for 1 h at 25° C.

[2] = target: T1, chymotrypsin-like activity of the proteasome (Caenorhabditis elegans, UniProt Q9XUV0); experiment: as above; format: biochemical, C. elegans; settings: inhibitor 20 min prior to substrate, vs DMSO
T1 construct: worms were lysed in proteasome activity assay buffer; from tissue; host or cells: whole-worm lysate of adult C. elegans (N2, glp-1(e2141), fer-15;fem-1, daf-16;glp-1, rpn-6.1 OE and RNAi-fed strains)
T1 sequence (Q9XUV0 65-284): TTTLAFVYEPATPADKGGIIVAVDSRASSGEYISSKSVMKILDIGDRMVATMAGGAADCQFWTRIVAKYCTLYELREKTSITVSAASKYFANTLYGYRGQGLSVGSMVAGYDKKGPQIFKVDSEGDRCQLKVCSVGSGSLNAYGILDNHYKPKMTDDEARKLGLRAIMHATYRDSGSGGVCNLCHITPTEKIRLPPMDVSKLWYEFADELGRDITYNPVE
Protocol: as §1, §2

[3] = target: T2, chymotrypsin-like activity of the proteasome (Homo sapiens, UniProt P28074); experiment: 26S proteasome fluorogenic peptidase assay in human cell extracts, chymotrypsin-like; format: biochemical; settings: H9 hESCs; 62.5 nM for 24 hours; vs DMSO
T2 construct: 15-25 μg of total protein of cell lysates were transferred to a 96-well microtiter plate; endogenous in cells; host or cells: H9 and HUES-6 hESCs and derived NPCs, neurons, trophoblasts and fibroblasts; BJ fibroblasts, astrocytes, HEK293T
T2 sequence (P28074 60-263): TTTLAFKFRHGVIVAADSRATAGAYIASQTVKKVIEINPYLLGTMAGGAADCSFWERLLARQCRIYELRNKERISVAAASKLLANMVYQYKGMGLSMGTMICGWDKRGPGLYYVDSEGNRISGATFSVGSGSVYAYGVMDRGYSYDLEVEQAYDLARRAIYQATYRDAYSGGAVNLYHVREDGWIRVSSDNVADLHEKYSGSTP
Protocol: 26S proteasome fluorogenic peptidase assays. In vitro assay of 26S proteasome activities was performed as previously described (Kisselev, A. F. & Goldberg, A. L., Methods in enzymology 398, 364-378 (2005)). Cells were collected in proteasome activity assay buffer (50 mM Tris-HCl (pH 7.5), 250 mM sucrose, 5 mM MgCl2, 0.5 mM EDTA, 2 mM ATP and 1 mM dithiothreitol) and lysed by passing 10 times through a 27 gauge needle attached to a 1 ml syringe. Lysate was centrifuged at 10,000 g for 10 min at 4° C. 15-25 μg of total protein of cell lysates were transferred to a 96-well microtiter plate (BD Falcon) and then the fluorogenic substrate was added to lysates. For measuring the chymotrypsin-like activity of the proteasome Applicants used either Z-Gly-Gly-Leu-AMC (Enzo) or Suc-Leu-Leu-Val-Tyr-AMC (Enzo). Applicants used Z-Leu-Leu-Glu-AMC (Enzo) to measure the caspase-like activity of the proteasome and Ac-Arg-Leu-Arg-AMC for the proteasome trypsin-like activity. Fluorescence (380-nm excitation, 460-nm emission) was monitored on a microplate fluorometer (Infinite M1000, Tecan) every 5 min for 1 h at 25° C. Protein concentration of the cell homogenates was determined using the BCA protein assay (Pierce).

[4] = test system: polyubiquitinylated proteins, proteasome subunits, transcription factors; experiment: Western blot of human cell extracts; format: cell-based; settings: H9 hESCs; 62.5 nM 24 h
Protocol: Western Blot. For analysis of proteasome subunits, cells were collected in proteasome activity assay buffer supplemented with protease inhibitors (Roche) and lysed by passing 10 times through a 27 gauge needle attached to a 1 ml syringe. Lysate was centrifuged at 10,000 g for 10 min at 4° C. Protein concentration of the cell homogenates was determined using the BCA protein assay (Pierce). For analysis of transcription factor and polyubiquitinylated proteins, cells were harvested from tissue culture plates by cell scraping and lysed in protein cell lysis buffer (10 mM Tris-Cl pH7.4, 10 mM EDTA, 50 mM NaCl, 50 mM NaF, 1% Triton X-100, 0.1% SDS supplemented with 2 mM sodium orthovanadate, 1 mM PMSF and Complete Mini Protease and PhosSTOP inhibitor cocktail mix) for 2 hrs at 1,000 rpm and 4° C. in a Thermomixer. Protein concentrations were determined with a standard Bradford protein assay (BioRad). 20-50 μg of total protein were separated by SDS-PAGE, transferred to nitrocellulose membranes (Whatman) and subjected to immunoblotting. […]

H9 hESCs = experiment: quantitative RT-PCR in H9 hESCs; format: cell-based, human; settings: 62.5 nM 24 h, relative to DMSO
Protocol: Lentiviral infection of human stem cells. hESC colonies growing on Matrigel were incubated with mTesR1 medium containing 10 μM ROCK inhibitor (Y-27632) for one hApplicants' and individualized using Accutase 1×. 5×10^5 cells were infected in suspension with 10 μl of concentrated lentivirus in the presence of 10 μM ROCK inhibitor. Cell suspension was centrifuged to remove virus, passed through a mesh of […] to obtain individual cells and plated back on a feeder layer of fresh MEFs in hESC cell media supplemented with 10 μM ROCK inhibitor. After a few days in culture, small hES cell colonies arose. For LV-GFP and LV-shFOXOs stable lines, GFP positive colonies were selected and manually passaged onto fresh MEFs to establish new hESC cell lines. For LV-non-targeting shRNA, shPSMD11, shPSMC2, FOXO4 OE, FOXO4 AAA OE and PSMD11 OE stable lines, Applicants performed 1 μg/ml puromycin resistance selection during 3 days and then colonies were manually passaged onto fresh MEFs to establish new hESC cell lines. […]
RNA isolation and quantitative RT-PCR. Total RNA was extracted using RNAbee (Tel-Test Inc). cDNA was created using the Quantitect Reverse Transcriptase kit (Qiagen). […] Data was analyzed with the comparative 2ΔΔCt method using β-actin and GAPDH as housekeeping genes. […]

hESCs = experiment: MG-132 treatment of cultured cells, cell death and detachment; format: cell-based, human; settings: hESCs vs NPCs or neurons; data not shown
[5] = fer-15(b26);fem-1(hc17) worm lysate

Row | Structure (SMILES) | proteasome activity in treated worms [1] | chymotrypsin-like proteasome activity (Z-GGL-AMC) [2, 5] | chymotrypsin-like proteasome activity (Z-GGL-AMC) ([2]; glp-1(e2141) worm lysate) | proteasome activity in hESCs [3] | polyubiquitinylated proteins [4] | pluripotency markers (Real Time PCR) (H9 hESCs) | sensitivity to proteasome inhibition (cell death and detachment) (hESCs)
1 | O=c1[nH]c(=O)n([C@H]2C[C@H](O)[C@@H](CO)O2)cc1F [FUdR, 5-fluoro-2′ deoxyuridine] | did not affect proteasome activity |  |  |  |  |  | 
2 | CC(=O)N[C@@H](CSC(=O)[C@]1([C@@H](O)C(C)C)NC(=O)[C@H](C)[C@@H]1O)C(=O)O [lactacystin] |  | blocked activity from extracts; also recorded: blocked chymotrypsin-like proteasome activity | blocked activity from extracts; also recorded: blocked chymotrypsin-like proteasome activity |  |  |  | 
3 | CC(C)C[C@@H](C=O)NC(=O)[C@H](CC(C)C)NC(=O)[C@H](CC(C)C)NC(=O)OCc1ccccc1 [MG-132] (Cbz-Leu-Leu-Leu-aldehyde) |  | blocked activity from extracts; also recorded: blocked chymotrypsin-like proteasome activity | blocked activity from extracts; also recorded: blocked chymotrypsin-like proteasome activity | sufficient to reduce proteasome activity; also recorded: dramatically decreases proteasome activity | induces accumulation of polyubiquitinylated proteins | decreased pluripotency markers; also recorded: induces a decrease in pluripotency markers | hESCs were more sensitive to proteasome inhibition than NPCs or neurons
